Results published in publication PMC4657054, “First Structural View of a Peptide Interacting with the Nucleotide Binding Domain of Heat Shock Protein 90” (Scientific Reports, 2015).
Residues, ends and D or L forms follow the SMILES beside them. No end group written: not given here.

Columns and labels:
[1] = biological target: T1, HspD (Hsp90 of Dictyostelium discoideum) (Dictyostelium discoideum, UniProt P54651); assay: ATPase activity of HspD (pRSET A construct) in presence of peptide; format: biochemical; conditions: for inhibition of ATPase activity of HspD: pre-incubation 0.5 h room temperature, reaction 37 °C 1 h
T1 construct: We had earlier reported the activity studies of the full length protein; hexahistidine tag (N); pRSET A vector linker containing Gly-Arg-Asp-Leu-Tyr-Asp-Asp (N); made in house; host or cells: E. coli Rosetta
Experimental: ATPase assay for HspD was carried out in presence of varying concentrations of the peptide and fixed ATP concentration of 500 μM. In presence of the peptide, there is a significant dose dependent inhibition of ATPase activity of HspD, starting from 5 mM concentration of the peptide (Fig. 5a).
(§1) The genes for HspD and HspD-NTD were cloned into pRSET A vector, using the following primers: 5′ […] 3′ as forward primer and 5′ […] 3′ as reverse primer for HspD as described previously, and 5′ […] 3′ as forward primer and 5′[…] 3′ as reverse primer for HspD-NTD, containing BamHI and XhoI sites (underlined) in forward and reverse primers, respectively. The proteins, HspD and HspD-NTD, were expressed as hexa histidine tagged fusion proteins in E. coli Rosetta strain. The cells were grown in Terrific broth and induced with 1 mM isopropyl β-D-1-thiogalactopyranoside at 15 °C for 15 hours. The proteins were purified by nickel-NTA affinity chromatography. The column was washed with imidazole gradient ranging from 5 mM to 30 mM in 50 mM Tris, pH 7.5, 500 mM NaCl, buffer. The proteins were finally eluted with 300 mM imidazole, followed by gel filtration with Sephacryl S-200 HR column and stored in 25 mM Tris and 200 mM NaCl, pH 7.5 buffer. The clone for human Hsp90 in pRSET A vector was expressed in E. coli Rosetta strain, and the protein was purified to homogeneity by nickel-NTA affinity chromatography, as described previously[31] and dialysed to exchange buffer containing 40 mM Tris-Cl, pH 7.5, 100 mM KCl and 5 mM MgCl2 for the ATPase assay. For the new construct the gene for HspD and HspD-NTD were cloned in pET-28a vector, which lacks the bound peptide sequence. The proteins were expressed and purified using the same protocol as described above.
In order to check the effect of the peptide binding on the ATPase activity of HspD and human Hsp90, purified proteins (2 μM) were incubated with varying peptide concentrations in 40 mM Tris–Cl buffer, pH 7.4, containing 100 mM KCl and 5 mM MgCl2, at room temperature for half hour. ATPase reaction was carried out in the presence of fixed ATP concentration of 500 μM at 37 °C for one hour. γ-^32P-ATP with a specific activity of 0.55 Ci/mmol was used as a tracer. ATP hydrolysis was monitored on a PEI- cellulose TLC plate. Fractional cleavage of ATP was calculated for each peptide concentration. ATPase activity of Hsp90 alone was considered 100%, and percent change in ATPase activity was plotted against peptide concentration.

[2] = biological target: T2, HspD, new construct (pET-28a) (Dictyostelium discoideum, UniProt P54651); assay: ATPase activity of new construct of HspD (pET-28a, lacking the linker peptide sequence) in presence of peptide; format: biochemical; conditions: 13.5 mM peptide (highest concentration), pET-28a construct, 500 μM ATP, mean ± SEM, n = 2
T2 construct: made in house; host or cells: E. coli Rosetta (same protocol)
Experimental: Bio-Layer Interferometry experiments were carried out to check the binding of the peptide RELWDD. […] The peptide can be further modified to improve the binding efficacy, thereby reducing the inhibitory concentration required to inhibit Hsp90 function.
The genes for HspD and HspD-NTD were cloned into pRSET A vector, using the following primers: 5′ […] 3′ as forward primer and 5′ […] 3′ as reverse primer for HspD as described previously, and 5′ […] 3′ as forward primer and 5′[…] 3′ as reverse primer for HspD-NTD, containing BamHI and XhoI sites (underlined) in forward and reverse primers, respectively. The proteins, HspD and HspD-NTD, were expressed as hexa histidine tagged fusion proteins in E. coli Rosetta strain. The cells were grown in Terrific broth and induced with 1 mM isopropyl β-D-1-thiogalactopyranoside at 15 °C for 15 hours. The proteins were purified by nickel-NTA affinity chromatography. […]
(§2) In order to check the effect of the peptide binding on the ATPase activity of HspD and human Hsp90, purified proteins (2 μM) were incubated with varying peptide concentrations in 40 mM Tris–Cl buffer, pH 7.4, containing 100 mM KCl and 5 mM MgCl2, at room temperature for half hour. […] ATP hydrolysis was monitored on a PEI- cellulose TLC plate. Fractional cleavage of ATP was calculated for each peptide concentration. […]

[3] = biological target: T3, HspD-NTD (pET-28a construct lacking the linker peptide) (Dictyostelium discoideum, UniProt P54651); assay: biochemical; format: binding
T3 construct: the crystal structure of the N-terminal domain of HspD (HspD-NTD); made in house; host or cells: E. coli Rosetta (same protocol)
Experimental: The binding of the peptide RELWDD to HspD-NTD construct lacking the linker peptide was measured by Bio-Layer Interferometry using an Octet RED96 instrument (ForteBio, Inc.). The peptide was immobilized onto Amine Reactive Second-Generation (AR2G) Biosensors. Binding studies were performed by dipping the biosensors in varying concentrations of HspD-NTD. An equal number of unliganded sensors was used as control, to account for non-specific binding. The traces were processed using ForteBio Data Analysis Software, ver. 8.0.3.5, exported and fit globally using Biaevaluation 3.0.1. A simple 1:1 Langmuir interaction model was used for fitting the data.
Figure S1. Binding of HspD-NTD to the peptide RELWDD using Bio-layer Interferometry.
concentrations of the protein.
(1 picture or pasted object on this page, not shown here)

human Hsp90 [4] = biological target: T4, human Hsp90 (Homo sapiens, UniProt P07900); assay: ATPase activity of human Hsp90 in presence of peptide; format: biochemical; parameters: made in house; host or cells: E. coli Rosetta; conditions: human Hsp90 2 μM, 500 μM ATP
Experimental: Lys47 of HspD-NTD is observed to be in a different rotamer conformation as compared to Lys58 of the human isoform, due to the former’s interaction with the residues of the peptide. Lys58 of the human Hsp90 is likely to adopt a similar conformation in the presence of a similar peptide. The water molecules interacting with Asn40 and Asp82 in the case of HspD-NTD are also found to be conserved in human Hsp90-NTD structure. […] In order to validate this, ATPase assay was performed for human Hsp90 in the presence of the modified peptide. […] This observation that the peptide binds to the NTD and inhibits its ATPase activity paves way for the development of new class of peptide-based inhibitors for Hsp90.
as §1, with “The clone for human Hsp90 in pRSET A vector was expressed in E. coli Rosetta strain, and the protein was purified to homogeneity by nickel-NTA affinity chromatography, as described previously[31] and dialysed to exchange buffer containing 40 mM Tris-Cl, pH 7.5, 100 mM KCl and 5 mM MgCl2 for the ATPase assay. For the new construct the gene for HspD and HspD-NTD were cloned in pET-28a vector, which lacks the bound peptide sequence. The proteins were expressed and purified using the same protocol as described above.” left out
as §2

[5] = biological target: Hsp90 of Dictyostelium discoideum (HspD), full length, pRSET A construct (Dictyostelium discoideum) (UniProt P54651)
human Hsp90 [6] = biological target: T4, human Hsp90
[7] = biological target: new construct of HspD, full length, in pET-28a (Dictyostelium discoideum) (UniProt P54651)
[8] = biological target: T5, N-terminal domain of Hsp90 of Dictyostelium discoideum (HspD-NTD), pRSET A construct (Dictyostelium discoideum, UniProt P54651 1-225); assay: crystal structure; hanging drop, 15 mg/mL HspD-NTD, 0.1 M HEPES pH 7.0-8.0, 10-30% PEG3350; no peptide added, the peptide comes from the vector stretch of the fusion protein; 1.2 Å; conditions: both partners purified
T5 construct: 'a total of 225 residues', the first 214 seen in the density; forward primer starts at the ATG of the gene, reverse primer encodes ...ETTAK-stop; Expressed from pRSET A with a vector stretch (holding GRDLYDD) between the N-terminal hexahistidine tag and the NTD; source: E. coli Rosetta, purified (nickel-NTA, gel filtration on Sephacryl S-200 HR)
T5 sequence (P54651 1-225): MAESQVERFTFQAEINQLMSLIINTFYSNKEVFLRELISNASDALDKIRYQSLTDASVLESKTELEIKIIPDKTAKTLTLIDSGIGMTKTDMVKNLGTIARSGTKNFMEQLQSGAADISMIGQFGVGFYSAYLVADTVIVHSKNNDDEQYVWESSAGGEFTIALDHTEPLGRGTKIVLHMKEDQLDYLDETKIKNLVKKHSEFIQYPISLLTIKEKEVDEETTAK

T3 sequence (P54651 1-225 limits assumed): as the sequence (P54651 1-225) above
T1 sequence (P54651 whole entry): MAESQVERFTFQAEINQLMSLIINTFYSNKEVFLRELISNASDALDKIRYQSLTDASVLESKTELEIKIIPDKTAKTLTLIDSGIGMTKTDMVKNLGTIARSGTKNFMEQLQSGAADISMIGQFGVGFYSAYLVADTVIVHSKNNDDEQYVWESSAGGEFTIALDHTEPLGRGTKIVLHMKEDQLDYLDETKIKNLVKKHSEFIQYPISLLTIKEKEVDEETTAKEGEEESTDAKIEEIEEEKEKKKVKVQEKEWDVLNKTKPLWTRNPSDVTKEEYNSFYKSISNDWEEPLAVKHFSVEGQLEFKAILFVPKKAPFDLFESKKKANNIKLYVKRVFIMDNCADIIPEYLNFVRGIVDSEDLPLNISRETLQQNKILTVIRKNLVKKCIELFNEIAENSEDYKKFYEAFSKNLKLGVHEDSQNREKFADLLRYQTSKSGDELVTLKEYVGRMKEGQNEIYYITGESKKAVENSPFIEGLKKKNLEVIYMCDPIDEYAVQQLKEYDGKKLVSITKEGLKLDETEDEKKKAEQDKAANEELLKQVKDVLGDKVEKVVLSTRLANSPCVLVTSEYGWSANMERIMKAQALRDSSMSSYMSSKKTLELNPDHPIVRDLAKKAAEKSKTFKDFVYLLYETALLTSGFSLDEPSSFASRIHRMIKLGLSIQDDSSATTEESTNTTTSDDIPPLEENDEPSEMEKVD
T2 sequence (P54651 whole entry): as above
new construct of HspD, full length, in pET-28a (Dictyostelium discoideum), sequence (P54651 whole entry, the tested form may be a part): as the sequence (P54651 whole entry) above
Hsp90 of Dictyostelium discoideum (HspD), full length, pRSET A construct (Dictyostelium discoideum), sequence (P54651 whole entry): as above

CC(C)C[C@H](NC(=O)[C@H](CCC(=O)O)NC(=O)[C@@H](N)CCCNC(=N)N)C(=O)N[C@@H](Cc1c[nH]c2ccccc12)C(=O)N[C@@H](CC(=O)O)C(=O)N[C@@H](CC(=O)O)C(=O)O [RELWDD, Arg-Glu-Leu-Trp-Asp-Asp] (H-RELWDD-OH)
inhibition of ATPase activity of HspD ([1]; 10 mM peptide, HspD 2 μM, 500 μM ATP): 30%
ATPase activity of HspD observed (Hsp90 alone = 100%) ([1]; 13.5 mM peptide (highest concentration), HspD 2 μM, 500 μM ATP, mean ± SEM, n = 5, SEM): 38.50 ± 10.11%
inhibition of ATPase activity of HspD ([1]; 13.5 mM peptide, HspD 2 μM, 500 μM ATP): 60%
ATPase activity of new construct of HspD observed (Hsp90 alone = 100%) [2]: 50.60 ± 4.68%
KD of binding to HspD-NTD, in words [3]: lower micromolar range
kon ([3]; Bio-Layer Interferometry, peptide immobilized on AR2G biosensors, 1:1 Langmuir model, global fit, mean ± standard deviation, SD): 90.6 ± 46.6 M⁻¹ s⁻¹
Kd ([3]; SD): 28.2 ± 14.6 µM
inhibition of ATPase activity of human Hsp90 (human Hsp90 [4]; 5 mM peptide): 30%
inhibition of ATPase activity of human Hsp90 (human Hsp90 [4]; 10 mM peptide): 55%
ATPase activity of human Hsp90 remaining (Hsp90 alone = 100%) (human Hsp90 [4]; 10 mM peptide, mean ± SEM, n = 2, SEM): 46.91 ± 12.05%

GRDLYDD [GRDLYDD, purchased synthetic peptide]
change in ATPase activity of HspD in the presence of the peptide ([1]; 100 μM-13.5 mM peptide, HspD 2 μM, 500 μM ATP, 37 °C, 1 h, γ-32P-ATP, TLC): no significant change
ATPase inhibition of HspD, in words ([1]; summary statement): no inhibition whatsoever

B1: modified hexapeptide Arg-Glu-Leu-Trp-Asp-Asp (peptide)
peptide: RELWDD
modifications: not fully specified
percent inhibition of ATPase activity of HspD (2 μM, 500 μM ATP) with rising peptide RELWDD, inhibition from 5 mM, 30% at 10 mM, highest at 13.5 mM [5]: 60%
percent inhibition of ATPase activity of human Hsp90 (2 μM) with rising peptide RELWDD, 30% at 5 mM, highest at 10 mM (human Hsp90 [6]): 55%
percent ATPase activity left of the new construct of HspD (pET-28a) with rising peptide RELWDD, at the highest concentration of 13.5 mM [7]: 50.6%

B2: heptapeptide Gly-Arg-Asp-Leu-Tyr-Asp-Asp (peptide)
peptide: GRDLYDD
notes: numbered from -14 to -8 starting from Gly; No peptide was added for the crystal; also called GRDLYDD; the peptide; source: for the ATPase assay: synthetic peptide, bought: Custom peptide synthesis, USV Limited, Mumbai
binding result [8]: binds
